Measurements as given in ChEMBL document CHEMBL5291721, “A preclinical secondary pharmacology resource illuminates target-adverse drug reaction associations of marketed drugs” (Nat Commun, 2023).

Assays:
[1] = target: T1, Muscarinic acetylcholine receptor M1 (Homo sapiens, UniProt P11229)
T1 sequence (P11229 whole entry): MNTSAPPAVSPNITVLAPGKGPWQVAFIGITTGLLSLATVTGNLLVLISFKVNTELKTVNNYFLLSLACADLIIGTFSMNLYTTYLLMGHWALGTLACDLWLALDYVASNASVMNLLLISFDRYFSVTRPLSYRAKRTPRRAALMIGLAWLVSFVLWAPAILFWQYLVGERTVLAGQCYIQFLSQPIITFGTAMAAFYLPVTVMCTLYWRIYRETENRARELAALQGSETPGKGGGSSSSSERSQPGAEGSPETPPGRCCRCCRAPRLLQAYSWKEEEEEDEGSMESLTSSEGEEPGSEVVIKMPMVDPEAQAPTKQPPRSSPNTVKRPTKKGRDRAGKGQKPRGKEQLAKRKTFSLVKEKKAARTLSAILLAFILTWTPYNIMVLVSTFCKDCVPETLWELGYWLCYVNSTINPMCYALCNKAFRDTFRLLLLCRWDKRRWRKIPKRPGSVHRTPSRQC

Histamine H1 receptor [2] = target: T2, Histamine H1 receptor (Homo sapiens, UniProt P35367); assay type: functional, cell-based
T2 sequence (P35367 whole entry): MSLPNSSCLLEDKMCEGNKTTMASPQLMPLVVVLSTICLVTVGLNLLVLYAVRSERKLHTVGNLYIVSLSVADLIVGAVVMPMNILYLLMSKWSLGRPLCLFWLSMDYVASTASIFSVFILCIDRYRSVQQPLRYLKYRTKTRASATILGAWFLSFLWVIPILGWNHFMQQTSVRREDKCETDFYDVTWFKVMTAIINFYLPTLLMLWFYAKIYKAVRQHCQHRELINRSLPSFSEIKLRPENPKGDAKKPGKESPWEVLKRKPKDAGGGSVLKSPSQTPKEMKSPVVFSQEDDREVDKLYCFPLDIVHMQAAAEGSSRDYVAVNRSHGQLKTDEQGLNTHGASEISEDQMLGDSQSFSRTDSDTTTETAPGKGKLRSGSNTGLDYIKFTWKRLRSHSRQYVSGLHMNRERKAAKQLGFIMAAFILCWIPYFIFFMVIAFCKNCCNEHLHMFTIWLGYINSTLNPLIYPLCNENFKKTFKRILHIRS

Histamine H1 receptor [3] = target: T2, Histamine H1 receptor; assay type: functional, cell-based; remark: listed apart in the source
[4] = target: T3, Type-2 angiotensin II receptor (Homo sapiens, UniProt P50052); assay type: functional
T3 sequence (P50052 whole entry): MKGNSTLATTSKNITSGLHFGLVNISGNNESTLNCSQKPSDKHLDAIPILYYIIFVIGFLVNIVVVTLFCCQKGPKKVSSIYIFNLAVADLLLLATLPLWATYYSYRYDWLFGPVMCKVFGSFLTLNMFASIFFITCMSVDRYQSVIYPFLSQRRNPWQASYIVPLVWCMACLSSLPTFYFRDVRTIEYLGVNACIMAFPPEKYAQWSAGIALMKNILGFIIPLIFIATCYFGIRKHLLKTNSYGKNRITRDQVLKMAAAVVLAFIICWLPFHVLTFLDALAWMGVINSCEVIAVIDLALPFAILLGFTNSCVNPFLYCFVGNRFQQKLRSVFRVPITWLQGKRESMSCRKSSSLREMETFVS

D(4) dopamine receptor = target: T4, D(4) dopamine receptor (Homo sapiens, UniProt P21917)
T4 sequence (P21917 whole entry): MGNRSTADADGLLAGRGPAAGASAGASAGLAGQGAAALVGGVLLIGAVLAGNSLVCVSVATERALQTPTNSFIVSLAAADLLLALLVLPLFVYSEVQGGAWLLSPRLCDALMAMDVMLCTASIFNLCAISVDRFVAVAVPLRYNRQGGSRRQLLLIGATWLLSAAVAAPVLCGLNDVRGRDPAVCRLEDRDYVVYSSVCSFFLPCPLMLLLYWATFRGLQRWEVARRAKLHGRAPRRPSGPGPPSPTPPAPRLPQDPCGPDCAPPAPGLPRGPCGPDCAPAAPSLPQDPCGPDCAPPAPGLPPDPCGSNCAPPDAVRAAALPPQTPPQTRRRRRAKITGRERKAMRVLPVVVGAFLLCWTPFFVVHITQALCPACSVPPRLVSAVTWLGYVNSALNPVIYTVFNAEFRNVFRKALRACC

[5] = target: T5, Muscarinic acetylcholine receptor M2 (Homo sapiens, UniProt P08172)
T5 sequence (P08172 whole entry): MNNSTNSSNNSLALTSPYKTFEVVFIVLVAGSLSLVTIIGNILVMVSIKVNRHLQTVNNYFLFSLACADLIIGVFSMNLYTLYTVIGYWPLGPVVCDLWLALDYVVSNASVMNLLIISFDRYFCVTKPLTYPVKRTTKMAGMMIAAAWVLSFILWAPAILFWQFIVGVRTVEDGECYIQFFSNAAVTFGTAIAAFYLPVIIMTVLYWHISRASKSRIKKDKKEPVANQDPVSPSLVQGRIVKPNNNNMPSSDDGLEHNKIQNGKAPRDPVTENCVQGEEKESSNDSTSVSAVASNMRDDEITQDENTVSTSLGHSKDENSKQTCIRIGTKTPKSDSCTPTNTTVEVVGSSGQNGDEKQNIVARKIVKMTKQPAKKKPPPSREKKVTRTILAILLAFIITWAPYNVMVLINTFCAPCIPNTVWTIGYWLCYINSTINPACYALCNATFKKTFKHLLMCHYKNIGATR

[6] = target: T6, Alpha-1A adrenergic receptor (Homo sapiens, UniProt P35348)
T6 sequence (P35348 whole entry): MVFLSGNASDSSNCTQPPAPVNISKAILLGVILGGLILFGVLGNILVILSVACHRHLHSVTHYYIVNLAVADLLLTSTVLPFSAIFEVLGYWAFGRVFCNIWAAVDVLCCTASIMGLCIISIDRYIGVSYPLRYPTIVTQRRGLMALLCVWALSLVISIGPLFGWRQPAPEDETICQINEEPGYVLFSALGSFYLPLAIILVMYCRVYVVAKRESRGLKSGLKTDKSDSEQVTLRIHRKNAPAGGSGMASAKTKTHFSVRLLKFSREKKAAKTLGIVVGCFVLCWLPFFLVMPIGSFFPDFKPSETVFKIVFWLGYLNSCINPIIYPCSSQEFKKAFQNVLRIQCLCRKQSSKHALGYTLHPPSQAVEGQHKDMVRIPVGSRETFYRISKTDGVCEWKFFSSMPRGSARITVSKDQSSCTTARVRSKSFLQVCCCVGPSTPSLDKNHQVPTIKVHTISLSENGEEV

[7] = target: T7, Peroxisome proliferator-activated receptor gamma (Homo sapiens, UniProt P37231); assay type: functional
T7 sequence (P37231 whole entry): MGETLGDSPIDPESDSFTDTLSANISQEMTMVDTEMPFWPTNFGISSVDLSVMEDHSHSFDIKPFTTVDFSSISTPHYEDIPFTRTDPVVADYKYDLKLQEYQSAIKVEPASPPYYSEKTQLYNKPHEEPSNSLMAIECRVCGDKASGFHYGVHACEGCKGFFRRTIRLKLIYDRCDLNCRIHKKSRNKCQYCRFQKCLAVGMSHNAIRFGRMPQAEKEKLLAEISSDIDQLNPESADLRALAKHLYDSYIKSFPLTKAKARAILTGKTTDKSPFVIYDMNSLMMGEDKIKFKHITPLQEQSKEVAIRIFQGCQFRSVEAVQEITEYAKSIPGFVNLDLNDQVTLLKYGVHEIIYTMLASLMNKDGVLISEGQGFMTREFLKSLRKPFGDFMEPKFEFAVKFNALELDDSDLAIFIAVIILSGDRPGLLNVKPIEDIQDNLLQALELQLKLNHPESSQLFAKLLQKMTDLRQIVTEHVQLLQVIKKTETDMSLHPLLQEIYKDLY

[8] = target: T7, Peroxisome proliferator-activated receptor gamma; assay type: functional; remark: listed apart in the source
[9] = target: 5-hydroxytryptamine receptor 7 (Homo sapiens, UniProt P34969)
5-hydroxytryptamine receptor 7, sequence (P34969 whole entry): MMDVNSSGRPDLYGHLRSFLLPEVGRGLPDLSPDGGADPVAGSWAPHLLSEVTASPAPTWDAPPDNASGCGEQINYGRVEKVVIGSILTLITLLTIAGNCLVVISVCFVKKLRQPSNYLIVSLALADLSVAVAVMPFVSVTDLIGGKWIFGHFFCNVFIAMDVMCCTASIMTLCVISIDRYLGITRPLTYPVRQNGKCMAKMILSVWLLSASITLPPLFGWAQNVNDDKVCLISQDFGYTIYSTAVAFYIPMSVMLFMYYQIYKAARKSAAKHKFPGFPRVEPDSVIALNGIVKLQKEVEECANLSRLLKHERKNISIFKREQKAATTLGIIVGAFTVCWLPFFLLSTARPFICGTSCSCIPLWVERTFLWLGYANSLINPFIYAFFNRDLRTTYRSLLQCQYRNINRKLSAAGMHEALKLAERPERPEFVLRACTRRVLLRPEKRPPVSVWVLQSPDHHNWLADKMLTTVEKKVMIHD
Further: assay procedure not described here.

Q: Nc1ccncc1N [AMIFAMPRIDINE] was tested. Which AC50 [1] did it give?
A: > 30 µM

Q: How did the AC50 (Histamine H1 receptor [2]) turn out when CN1CCN(C2=Nc3ccccc3Sc3ccc(Cl)cc32)CC1 [CLOTHIAPINE] was run?
A: > 30 µM

Q: And the AC50 (Histamine H1 receptor [3])?
A: 0.63 µM

Q: Which AC50 [4] does the source give for COc1cc2nc(N3CCN(C(=O)c4ccco4)CC3)nc(N)c2cc1OC [PRAZOSIN] here?
A: > 100 µM

Q: And the AC50 (D(4) dopamine receptor)?
A: > 10 µM

Q: And the AC50 [5]?
A: 13.2 µM

Q: How did the AC50 [4] turn out when CCN1CCCC1CNC(=O)c1cc(S(N)(=O)=O)ccc1OC (stereo not drawn) [SULPIRIDE] was run?
A: > 100 µM

Q: For O=[N+]([O-])O[C@@H]1CO[C@H]2[C@@H]1OC[C@@H]2O [ISOSORBIDE MONONITRATE], which AC50 (D(4) dopamine receptor) is on record?
A: > 10 µM

Q: What about the AC50 [5] of the same compound?
A: > 10 µM

Q: And the AC50 [6]?
A: > 10 µM

Q: Which AC50 [1] does the source give for COc1ccccc1N1CCN(CC(O)COc2cccc3ccccc23)CC1 (stereo not drawn) [NAFTOPIDIL] here?
A: > 30 µM

Q: Cc1cc(C)c(NC(=O)CN(CC(=O)O)CC(=O)O)c(C)c1Br [MEBROFENIN] was tested. Which AC50 [1] did it give?
A: > 30 µM

Q: CC[C@H]1CN2CCc3cc(OC)c(OC)cc3[C@@H]2C[C@@H]1C[C@H]1NCCc2cc(OC)c(OC)cc21 [EMETINE] was tested. Which AC50 [7] did it give?
A: > 30 µM

Q: And the AC50 [8]?
A: > 30 µM

Q: With CCC(CC)(CC(=O)Nc1cccc(/C=C/c2nc(C3CCC3)cs2)c1)C(=O)O as the compound, how does the AC50 [7] read?
A: > 30 µM

Q: What about the AC50 [8] of the same compound?
A: > 30 µM

Q: Cc1oc(=O)oc1CN1CCN(c2cc3c(cc2F)c(=O)c(C(=O)O)c2n3C(C)S2)CC1 (stereo not drawn) [PRULIFLOXACIN] was tested. Which AC50 [1] did it give?
A: > 30 µM

Q: COc1ccc(C(=O)Nc2ccccc2CCC2CCCCN2C)cc1 (stereo not drawn) [ENCAINIDE] was tested. Which AC50 (D(4) dopamine receptor) did it give?
A: > 10 µM

Q: What about the AC50 [5] of the same compound?
A: > 10 µM

Q: What about the AC50 (Histamine H1 receptor [2]) of the same compound?
A: > 30 µM

Q: And the AC50 [6]?
A: > 10 µM

Q: And the AC50 (Histamine H1 receptor [3])?
A: > 30 µM

Q: Which results are given for CCCCCNC(=N)N/N=C/c1c[nH]c2ccc(OC)cc12 [TEGASEROD]?
A: AC50 [7]: > 30 µM; AC50 (D(4) dopamine receptor): 0.657 µM; AC50 [9]: 0.802 µM; AC50 [8]: > 30 µM; AC50 [6]: 0.267 µM

Q: For C=CCCCCCCCCC(=O)O [UNDECYLENIC ACID], which AC50 [1] is on record?
A: > 30 µM

Q: With CC[C@@H](C(N)=O)N1CCCC1=O as the compound, how does the AC50 [7] read?
A: > 30 µM

Q: And the AC50 [8]?
A: > 30 µM

Q: For O=[N+]([O-])c1cn2c(n1)OC[C@@H](OCc1ccc(OC(F)(F)F)cc1)C2 [PRETOMANID], which AC50 [9] is on record?
A: > 10 µM

Q: And the AC50 [6]?
A: > 10 µM

Q: How did the AC50 [5] turn out when CCOc1ccc(Cc2cc([C@@H]3O[C@H](CO)[C@@H](O)[C@H](O)[C@H]3O)ccc2Cl)cc1 [DAPAGLIFLOZIN] was run?
A: > 10 µM

Q: What does the source list for CCOc1ccccc1OCC1CNCCO1 (stereo not drawn) [VILOXAZINE]?
A: AC50 [4]: > 100 µM; AC50 (D(4) dopamine receptor): > 10 µM; AC50 [9]: > 10 µM; AC50 [5]: > 10 µM; AC50 (Histamine H1 receptor [2]): > 30 µM; AC50 [6]: > 10 µM; AC50 (Histamine H1 receptor [3]): > 30 µM

Q: CCOC(=O)/C=C1\SC(N2CCCCC2)C(=O)N1C (stereo not drawn) [ETOZOLIN] was tested. Which AC50 [4] did it give?
A: > 100 µM

Q: Which results are given for CN(C)CCc1c[nH]c2ccc(C[C@H]3COC(=O)N3)cc12 [ZOLMITRIPTAN]?
A: AC50 (Histamine H1 receptor [2]): > 30 µM; AC50 (Histamine H1 receptor [3]): > 30 µM
